Test system: Leishmania donovani
Test: Bioassay against Leishmania donovani
Format: cell-based
From the text: Marine invertebrates from Antarctica have been investigated for their potential natural product chemistry. Often sessile, these organisms must develop chemical protective mechanisms to survive and defend themselves against predators. The biodiversity of these organisms is of particular interest due to the extremely low temperatures and the circumpolar current around the Antarctic continent serving as an ecological isolating shield. The chemodiversity that emanates from these organisms can be a significant source of chemistry to be further developed into new drugs. The chemical investigation of an undescribed Gersemia sp. Antarctic coral has led to the isolation of two different kinds of bioactive compounds. After lyophilization of the organism, two different extractions were performed: the first one used a methylene chloride: methanol (1:1) solvent mixture, and the second one used methylene chloride only as solvent in a Soxhlet extraction. […] One and two-dimensional nuclear magnetic resonance, mass spectrometry, X-ray crystallography, and circular dichroism were the methods performed to elucidate and confirm the structures. Furthermore, biological testing against Leishmania sp. and ESKAPE pathogens, Zika virus, Clostridium difficile, and HeLa cancer cells were performed.
Table 1 details the bioactivity of two Alcyopterosins and ACDL-21.

Structure (SMILES): Cc1cc2c(c3c1[C@H](CO[N+](=O)[O-])OC3=O)CC(C)(C)C2 [Alcyopterosin E (2), alcyopterosin E]
- IC50: 3.1 µM

— patent publication US10898460B1, “Leishmania inhibitors” (University of South Florida, priority 2018, dated 2021)
